Source: PubChem BioAssay AID1259408 (Genetic Toxicology Data Bank (GENE-TOX), 2018)
Active and inactive are the calls of the source. The rule behind the calls is not given here.

Tested on: GENE-TOX genotoxicity assays, various organisms and cells
Assay: GENE-TOX mutagenicity studies
Settings: for call: Assay Type: In vivo carcinogenicity studies
[1] = Species/Cell Type: Arabidopsis species, Assay Type: Gene mutation, Assay Code: ARM+D, Dose Response: With dose response, Evaluation Type: Evaluation A (Pre-1980)
[2] = Species/Cell Type: Salmonella typhimurium (one or more of the five standard strains: TA98, TA100, TA1535, TA1537, and TA1538), Assay Type: Histidine reverse gene mutation, Ames assay, Assay Code: SAL+*, Activation: With metabolic activation, Evaluation Type: Evaluation A (Pre-1980)
[3] = Species/Cell Type: Salmonella typhimurium, Assay Type: Forward and reverse gene mutation, host-mediated assay, Assay Code: HMA+, Evaluation Type: Evaluation A (Pre-1980)
[4] = Species/Cell Type: Escherichia coli polA (W3119 vs P3478), Assay Type: Rec-assay, DNA effects (bacterial DNA repair), Assay Code: RE1+, Evaluation Type: Evaluation A (Pre-1980)
[5] = Species/Cell Type: Saccharomyces cerevisiae, Assay Type: Mitotic recombination or gene conversion, Assay Code: YEH+, Evaluation Type: Evaluation A (Pre-1980)
[6] = Species/Cell Type: Salmonella typhimurium (one or more of the five standard strains: TA98, TA100, TA1535, TA1537, and TA1538), Assay Type: Histidine reverse gene mutation, Ames assay, Assay Code: SAL+, Evaluation Type: Evaluation A (Pre-1980)
[7] = Species/Cell Type: Nonhuman, Assay Code: CCGT, Evaluation Type: Evaluation A (Pre-1980)
[8] = Species/Cell Type: Nonhuman, Assay Type: Sister-chromatid exchange (SCE) in vitro, Assay Code: SC2+D, Dose Response: With dose response, Evaluation Type: Evaluation B (Post-1980)
[9] = Species/Cell Type: Human, Assay Type: Sister-chromatid exchange (SCE) in vitro, Assay Code: SC1+D, Dose Response: With dose response, Evaluation Type: Evaluation B (Post-1980)
[10] = Species/Cell Type: Salmonella typhimurium (one or more of the five standard strains: TA98, TA100, TA1535, TA1537, and TA1538), Assay Type: Histidine reverse gene mutation, Ames assay, Assay Code: SALT, Evaluation Type: Evaluation A (Pre-1980)
[11] = Species/Cell Type: Nonhuman, Assay Code: CCG+, Evaluation Type: Evaluation A (Pre-1980)
[12] = Species/Cell Type: Saccharomyces cerevisiae, Assay Type: Mitotic recombination or gene conversion, Assay Code: YEC-, Evaluation Type: Evaluation A (Pre-1980)

`CN(Cc1ccccc1)N=O` was tested, and the mutagenic call [1] was “active; positive”, the mutagenic call (Species/Cell Type: Drosophila melanogaster, Assay Type: Sex-linked recessive lethal gene mutation, Assay Code: SRL+, Evaluation Type: Evaluation A (Pre-1980)) was “active; positive” and the mutagenic call (Species/Cell Type: Nonhuman, Assay Type: Sister-chromatid exchange (SCE) in vitro, Assay Code: SC2+, Evaluation Type: Evaluation B (Post-1980)) was “active; positive”. For the same compound, the mutagenic call [2] was “active; positive” and the mutagenic call [3] was “active; positive”.
`CCCCNC(=O)N(CCCC)c1nc(-c2ccccc2)cs1` was tested, and the mutagenic call [3] was “active; positive”.
For `O=C(O)c1ccc(C(=O)O)cc1`, the mutagenic call (Species/Cell Type: Syrian hamster embryo (SA7/SHE) cells, Assay Type: Cell transformation, viral enhanced, Assay Code: CT7-, Evaluation Type: Evaluation A (Pre-1980)) was “inactive; negative”.
For `BrCCCCCBr`, the mutagenic call [4] was “active; positive”.
In the case of `COCCOS(C)(=O)=O`, the mutagenic call [1] is reported as “active; positive” and the mutagenic call (Species/Cell Type: Hordeum vulgare (barley), Assay Type: Chromosome aberrations, Assay Code: HOC+D, Dose Response: With dose response, Evaluation Type: Evaluation A (Pre-1980)) is reported as “active; positive”.
In the case of `CCCCN(C)N=O`, the mutagenic call (Species/Cell Type: Arabidopsis species, Assay Type: Gene mutation, Assay Code: ARM+, Evaluation Type: Evaluation A (Pre-1980)) is reported as “active; positive”, the mutagenic call (Species/Cell Type: Escherichia coli polA (W3119 vs P3478), Assay Type: Rec-assay, DNA effects (bacterial DNA repair), Assay Code: RE1T, Evaluation Type: Evaluation A (Pre-1980)) is reported as “no conclusion” and the mutagenic call [2] is reported as “active; positive”.
In the case of `C=CC(OC(C)=O)c1ccc2c(c1)OCO2` (configuration not stated), the mutagenic call [4] is reported as “active; positive”, the mutagenic call [5] is reported as “active; positive” and the mutagenic call [6] is reported as “active; positive”.
For `Oc1ccc2cc3ccc4cccc5ccc(c2c1)c3c45`, the mutagenic call (Species/Cell Type: Chinese hamster lung (V79) cells, Assay Type: Forward gene mutation at the HPRT or ouabain locus, Assay Code: V79+/-*, Activation: With metabolic activation, Evaluation Type: Evaluation A (Pre-1980)) was “inactive; positive without activation, negative with activation”, the call [7] was “no conclusion” and the mutagenic call [2] was “active; positive”.
`O=C1Nc2ccc([N+](=O)[O-])cc2C1=O` was tested, and the mutagenic call [6] was “active; positive”.
In the case of `Cl/C=C/CCl`, the mutagenic call [6] is reported as “active; positive”.
`O=C(NO)c1ccc2ccccc2c1` was tested, and the mutagenic call [8] was “active; positive” and the mutagenic call [6] was “active; positive”.
In the case of `OO`, the mutagenic call [4] is reported as “active; positive”, the mutagenic call (Species/Cell Type: Human diploid fibroblasts, Assay Type: Unscheduled DNA synthesis (UDS) in vitro, DNA effects, Assay Code: UDH+, Evaluation Type: Evaluation A (Pre-1980)) is reported as “active; positive” and the mutagenic call (Species/Cell Type: Human lymphocytes, Assay Type: Sister-chromatid exchange (SCE) in vitro, Assay Code: SCL+D, Dose Response: With dose response, Evaluation Type: Evaluation B (Post-1980)) is reported as “active; positive”. For the same compound, the mutagenic call [9] was “active; positive”, the mutagenic call (Species/Cell Type: Neurospora crassa, Assay Type: Reverse gene mutation, Assay Code: NER+, Evaluation Type: Evaluation A (Pre-1980)) was “active; positive” and the mutagenic call [8] was “active; positive”. For the same compound, the mutagenic call [10] was “no conclusion”, the mutagenic call (Species/Cell Type: Schizosaccharomyces pombe, Assay Type: Reverse gene mutation, Assay Code: YEZ+, Evaluation Type: Evaluation A (Pre-1980)) was “active; positive” and the mutagenic call (Species/Cell Type: Vicia faba, Assay Type: Chromosome aberrations, Assay Code: VIC-, Evaluation Type: Evaluation A (Pre-1980)) was “inactive; negative”.
In the case of `CCCN(CCCCO)N=O`, the mutagenic call [2] is reported as “active; positive”.
In the case of `CCCCCCCCCCCCCCCCCC(=O)O`, the mutagenic call (Species/Cell Type: Escherichia coli polA (W3119 vs P3478), Assay Type: Rec-assay, DNA effects (bacterial DNA repair), Assay Code: RE1-, Evaluation Type: Evaluation A (Pre-1980)) is reported as “inactive; negative”.
`c1ccc(N=Nc2ccccc2)cc1` was tested, and the call [11] was “active; positive”, the mutagenic call [8] was “active; positive” and the mutagenic call [2] was “active; positive”.
In the case of `Cc1ccc(S(=O)(=O)NCl)cc1`, the mutagenic call (Species/Cell Type: Mammalian polychromatic erythrocytes, Assay Type: Micronucleus test, chromosome aberrations, Assay Code: MNTT, Evaluation Type: Evaluation B (Post-1980)) is reported as “no conclusion”.
For `CCN(CC)CCNc1ccc(COC(=O)c2ccco2)c2sc3ccccc3c(=O)c12`, the mutagenic call [6] was “active; positive”.
`O=C(O)CNCP(=O)(O)O` was tested, and the mutagenic call (Species/Cell Type: Human lymphocytes, Assay Type: Sister-chromatid exchange (SCE) in vitro, Assay Code: SCL+, Evaluation Type: Evaluation B (Post-1980)) was “active; positive” and the mutagenic call (Species/Cell Type: Human, Assay Type: Sister-chromatid exchange (SCE) in vitro, Assay Code: SC1+, Evaluation Type: Evaluation B (Post-1980)) was “active; positive”.
With `O=S(=O)(O)c1ccc(N=C2C=CC(=C(c3ccc(Nc4ccc(S(=O)(=O)O)cc4)cc3)c3ccc(Nc4ccc(S(=O)(=O)O)cc4)cc3)C=C2)cc1` the mutagenic call (Species/Cell Type: Bacillus subtilis (H17 vs M45), Assay Type: Rec-assay, spot test, DNA effects (bacterial DNA repair), Assay Code: REWT, Evaluation Type: Evaluation A (Pre-1980)) was “no conclusion”.
`[Cl][Ce]([Cl])[Cl]` was tested, and the mutagenic call (Species/Cell Type: Bacillus subtilis (H17 vs M45), Assay Type: Rec-assay, spot test, DNA effects (bacterial DNA repair), Assay Code: REW-, Evaluation Type: Evaluation A (Pre-1980)) was “inactive; negative”.
In the case of `C=CC(=O)OCC`, the mutagenic call (Species/Cell Type: Mammalian polychromatic erythrocytes, Assay Type: Micronucleus test, chromosome aberrations, Assay Code: MNT+, Evaluation Type: Evaluation B (Post-1980)) is reported as “active; positive”.
In the case of `C1COCCN1`, the mutagenic call [3] is reported as “active; positive”.
`O=[N+]([O-])c1ccc(-c2ncn[nH]2)o1` was tested, and the mutagenic call (Species/Cell Type: Escherichia coli WP2, Assay Type: Tryptophan reverse gene mutation, Assay Code: WP2-, Evaluation Type: Evaluation A (Pre-1980)) was “inactive; negative” and the mutagenic call (Species/Cell Type: Escherichia coli WP2 UVRA, Assay Type: Tryptophan reverse gene mutation, Assay Code: WPU+, Evaluation Type: Evaluation A (Pre-1980)) was “active; positive”.
With `c1ccc2cc3c(cc2c1)-c1cccc2cccc-3c12` the call [11] was “active; positive”.
For `CC(C)C(O)(C(=O)OCC1=CC[N@+]2([O-])CCCC12)[C@H](C)O` (some centres not stated), the mutagenic call (Species/Cell Type: Drosophila melanogaster, Assay Type: Sex-linked recessive lethal gene mutation, Assay Code: SRLT, Evaluation Type: Evaluation A (Pre-1980)) was “no conclusion”.
With `CCC(=O)O` the mutagenic call (Species/Cell Type: Mammalian polychromatic erythrocytes, Assay Type: Micronucleus test, chromosome aberrations, Assay Code: MNT-, Evaluation Type: Evaluation B (Post-1980)) was “inactive; negative”.
For `O=c1[nH]c(=O)n([C@H]2C[C@H](O)[C@@H](CO)O2)cc1/C=C/Cl`, the mutagenic call [9] was “active; positive”.
`O=[N+]([O-])c1c2ccccc2c2ccc3cccc4ccc1c2c43` was tested, and the mutagenic call (Species/Cell Type: Chinese hamster ovary (CHO) cells, Assay Type: Forward gene mutation at the HPRT locus, Assay Code: CHOT, Evaluation Type: Evaluation B (Post-1980)) was “no conclusion” and the mutagenic call [2] was “active; positive”.
For `COc1ccc2nc3cc(Cl)ccc3c(NCCCSCCCl)c2n1`, the mutagenic call (Species/Cell Type: Chinese hamster ovary (CHO) cells, Assay Type: Forward gene mutation at the HPRT locus, Assay Code: CHO+, Evaluation Type: Evaluation B (Post-1980)) was “active; positive”.
In the case of `NC(=S)Nc1cccc2ccccc12`, the call [7] is reported as “no conclusion” and the mutagenic call (Species/Cell Type: Syrian hamster embryo (SHE) cells, Assay Type: Cell transformation, clonal assay, Assay Code: CTC+, Evaluation Type: Evaluation A (Pre-1980)) is reported as “active; positive”.
With `Cc1ccc2cc3c(ccc4ccccc43)c3c2c1CC3O` (configuration not stated) the mutagenic call (Species/Cell Type: Chinese hamster lung (V79) cells, Assay Type: Forward gene mutation at the HPRT or ouabain locus, Assay Code: V79+, Evaluation Type: Evaluation A (Pre-1980)) was “active; positive”, the call (Species/Cell Type: Nonhuman, Assay Code: CCG+L, Evaluation Type: Evaluation A (Pre-1980)) was “active; positive” and the mutagenic call [2] was “active; positive”.
With `CCCC(C)(C)C(=O)Nc1ccc(Cl)cc1` the mutagenic call [12] was “inactive; negative”.
In the case of `FC(F)C(F)(F)C(F)(F)OC(F)(F)F`, the mutagenic call [10] is reported as “no conclusion”.
In the case of `Oc1c(Oc2ccc(Cl)cc2Cl)cc(Cl)c(Cl)c1Cl`, the mutagenic call (Species/Cell Type: Human lymphocytes, Assay Type: Sister-chromatid exchange (SCE) in vitro, Assay Code: SCLT, Evaluation Type: Evaluation B (Post-1980)) is reported as “no conclusion”, the mutagenic call (Species/Cell Type: Human, Assay Type: Sister-chromatid exchange (SCE) in vitro, Assay Code: SC1T, Evaluation Type: Evaluation B (Post-1980)) is reported as “no conclusion” and the mutagenic call (Species/Cell Type: Mouse, Sex: Female, Assay Type: Spot test, gene mutation, Assay Code: MSTT, Evaluation Type: Evaluation A (Pre-1980)) is reported as “no conclusion”. For the same compound, the mutagenic call (Species/Cell Type: Saccharomyces cerevisiae, Assay Type: Forward gene mutation, Assay Code: YEF+, Evaluation Type: Evaluation A (Pre-1980)) was “active; positive”, the mutagenic call [12] was “inactive; negative” and the mutagenic call [5] was “active; positive”.
